Results taken from patent US20240025856A1, “1,2,3,4-TETRAHYDROQUINOLINE DERIVATIVES AS INHIBITORS OF THE YAP/TAZ-TEAD ACTIVATION FOR TREATING CANCER” (KATHOLIEKE UNIVERSITEIT LEUVEN, priority 2020, published 2024).

Assays:
Format in all cases: cell-based
[1] = system: NCI-1H226; test: Mesothelioma cell line proliferation assay, H226 (ATPlite); conditions: Homo sapiens, NCI-H226, 144 h, 6 days with compound
Method: (§1) Mesothelioma cell lines, NCI-1H226 and NCI-1H2052 (all sourced from the ATCC cell culture collection) are plated in 96-well plates (Corning® 96 Well White Polystyrene Microplate clear flat bottom, white polystyrene (TC-Treated)), at 1500 cells/well in full medium (RPMI 1640 ATCC modification with L-glutamine, HEPES, Phenol Red, Sodium Pyruvate, High glucose, Low sodium bicarbonate and 10% fetal bovine serum). Cells are incubated overnight at 37° C. in an incubator with 5% C02. Then compounds, dissolved in DMSO, are added in dose-response. Cells are incubated with compound dilutions for another 6 days at 37° C. in an incubator with 5% C02. Cell viability is quantitated using the ATPlite kit (Perkin-Elmer) and the luminescence is read-out using an Envision instrument (Perkin-Elmer). The amount of relative light units produced using the ATPlite kit is used to calculated percent of inhibition.
(§2) The activities of some example compounds are depicted in the table below. The activity ranges A, B and C refer to EC50 values in the mesothelioma cell line proliferation assay as described as follows: “A”: EC50<1 μM; “B”: 1 μM s EC50≤10 μM and “C”: EC50≥10 μM; NT: not tested.

[2] = system: YAP/TAZ-TEAD transcription; test: Reporter gene assay for measuring the inhibition of YAP/TAZ-TEAD transcription (TEAD-responsive element luciferase reporter in Hek293T cells); conditions: Hek293T cells transiently transfected with TEAD-responsive element luciferase reporter, 24 hours incubation
How it was run: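 Readout is SteadyLite luciferase luminescence from a TEAD-responsive element reporter transiently transfected into Hek293T cells, exposed to compounds for 24 h at 37 °C/5% CO2. IC50 derived from percent inhibition, scaled between vehicle basal activity (0%) and positive control inhibitor (100%).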

[3] = system: NCI-1H2052; test: Mesothelioma cell line proliferation assay, H2052 (ATPlite); conditions: Homo sapiens, NCI-H2052, 144 h, 6 days with compound, read-out: H2025 (EC50)
Method: as §1, §2

SMILES | IC50 [2] | IC50 ([2]; Homo sapiens, HEK-293T, 24 h) | EC50 [1] | EC50 [3]
FC(F)(F)c1ccc(N2CC(C3CC(Br)=NO3)Cc3ccccc32)cc1 (single isomer, unassigned) [Cpd. No. 194(Dia1)-En1, 3-bromo-5-(1-(4-(trifluoromethyl)phenyl)-1,2,3,4-tetrahydroquinolin-3-yl)-4,5-dihydroisoxazole] | < 1 µM |  | < 1 µM | < 1 µM
C=CC(=O)NC1Cc2nc(N)ccc2N(c2ccc(C(F)(F)F)cc2)C1 (stereo not shown) [Cpd. No. 140, N-(6-amino-1-(4-(trifluoromethyl)phenyl)-1,2,3,4-tetrahydro-1,5-naphthyridin-3-yl)acrylamide] |  | < 1 µM | < 1 µM | < 1 µM
CC(=O)NCC1Cc2c(C#N)cccc2N(c2ccc(C(F)(F)F)cc2)C1 (stereo not shown) [Cpd. No. 154, N-((5-cyano-1-(4-(trifluoromethyl)phenyl)-1,2,3,4-tetrahydroquinolin-3-yl)methyl)acetamide] |  | < 1 µM | < 1 µM | 1 to 10 µM
C=CC(=O)NCC1Cc2c(CC#N)cccc2N(c2ccc(C(F)(F)F)cc2)C1 (stereo not shown) [Cpd. No. 163, N-((5-(cyanomethyl)-1-(4-(trifluoromethyl)phenyl)-1,2,3,4-tetrahydroquinolin-3-yl)methyl)acrylamide] |  | < 1 µM | < 1 µM | < 1 µM
FC(F)(F)c1ccc(N2CC(C3CC(Br)=NO3)Cc3ccccc32)cc1 (stereo not shown) [Cpd. No. 194, 3-bromo-5-(1-(4-(trifluoromethyl)phenyl)-1,2,3,4-tetrahydroquinolin-3-yl)-4,5-dihydroisoxazole] |  | < 1 µM | < 1 µM | ≥ 10 µM
C=CC(=O)NC1Cc2ccccc2N(c2ccc(S(F)(F)(F)(F)F)cc2)C1 (stereo not shown) [compound 023, N-(1-(4-(pentafluoro-λ^6-sulfaneyl)phenyl)-1,2,3,4-tetrahydroquinolin-3-yl)acrylamide] |  | < 1 µM | < 1 µM | 
C=CC(=O)NC1Cc2c(Cc3cccnc3)cccc2N(c2ccc(C(F)(F)F)cc2)C1 (stereo not shown) [compound 059, N-(5-(pyridin-3-yl-methyl)-1-(4-(trifluoromethyl)phenyl)-1,2,3,4-tetrahydroquinolin-3-yl)acrylamide] |  | < 1 µM | < 1 µM | 
C=CC(=O)NC1Cc2c(OC)cccc2N(c2ccc(C(F)(F)F)cc2)C1 (stereo not shown) [compound 073, N-(5-methoxy-1-(4-(trifluoromethyl)phenyl)-1,2,3,4-tetrahydroquinolin-3-yl)acrylamide] |  | < 1 µM | < 1 µM | 
C=CC(=O)NCC1Cc2c(-c3noc(=O)[nH]3)cccc2N(c2ccc(C(F)(F)F)cc2)C1 (stereo not shown) [compound 167, N-((5-(5-oxo-4,5-dihydro-1,2,4-oxadiazol-3-yl)-1-(4-(trifluoromethyl)phenyl)-1,2,3,4-tetrahydroquinolin-3-yl)methyl)acrylamide] |  | > 20 µM |  | 
C=CC(=O)NC1Cc2ccccc2N(C(=O)c2ccccc2)C1 (stereo not shown) [compound 172, N-(1-benzoyl-1,2,3,4-tetrahydroquinolin-3-yl)acrylamide] |  | > 20 µM |  | 
C=CC(=O)NCC1Cc2ccccc2N(Cc2ccccc2)C1 (stereo not shown) [compound 176, N-((1-benzyl-1,2,3,4-tetrahydroquinolin-3-yl)methyl)acrylamide] |  | < 1 µM |  | 
C=CC(=O)NCC1Cc2ccccc2N(C(=O)c2ccccc2)C1 (stereo not shown) [compound 177, N-((1-benzoyl-1,2,3,4-tetrahydroquinolin-3-yl)methyl)acrylamide] |  | < 1 µM |  | 
C=CC(=O)NCC1Cc2ccccc2N(CC2CCCCC2)C1 (stereo not shown) [compound 179, N-((1-(cyclohexylmethyl)-1,2,3,4-tetrahydroquinolin-3-yl)methyl)acrylamide] |  | < 1 µM |  | 
C=CC(=O)NCC1Cc2ccccc2N(C(=O)C2CCCCC2)C1 (stereo not shown) [compound 180, N-((1-(cyclohexanecarbonyl)-1,2,3,4-tetrahydroquinolin-3-yl)methyl)acrylamide] |  | < 1 µM |  | 
C=CC(=O)NC1Cc2ccccc2N(Cc2cccc(C(F)(F)F)c2)C1 (stereo not shown) [compound 182, N-(1-(3-(trifluoromethyl)benzyl)-1,2,3,4-tetrahydroquinolin-3-yl)acrylamide] |  | < 1 µM |  | 
C=CC(=O)NCC1Cc2ccccc2N(Cc2cccc(C(F)(F)F)c2)C1 (stereo not shown) [compound 185, N-((1-(3-(trifluoromethyl)benzyl)-1,2,3,4-tetrahydroquinolin-3-yl)methyl)acrylamide] |  | < 1 µM |  | 
C=CC(=O)NC1Cc2ccccc2N(S(=O)(=O)c2cccc(C(F)(F)F)c2)C1 (stereo not shown) [compound 186, N-(1-((3-(trifluoromethyl)phenyl)sulfonyl)-1,2,3,4-tetrahydroquinolin-3-yl)acrylamide] |  | < 1 µM |  | 
C=CC(=O)NC1Cc2ccccc2N(S(=O)(=O)c2ccc(C(F)(F)F)cc2)C1 (stereo not shown) [compound 187, N-(1-((4-(trifluoromethyl)phenyl)sulfonyl)-1,2,3,4-tetrahydroquinolin-3-yl)acrylamide] |  | < 1 µM |  | 
CCC(=O)NCC1CCc2ccccc2N1c1ccc(C(F)(F)F)cc1 (stereo not shown) [compound 188, N-((1-(4-(trifluoromethyl)phenyl)-1,2,3,4-tetrahydroquinolin-2-yl)methyl)propionamide] |  | > 20 µM |  | 
C=CC(=O)NCC1CCc2ccccc2N1Cc1ccc(C(F)(F)F)cc1 (stereo not shown) [compound 189, N-((1-(4-(trifluoromethyl)benzyl)-1,2,3,4-tetrahydroquinolin-2-yl)methyl)acrylamide] |  | < 1 µM |  | 
C=CC(=O)NCC1CCc2ccccc2N1Cc1cccc(C(F)(F)F)c1 (stereo not shown) [compound 190, N-((1-(3-(trifluoromethyl)benzyl)-1,2,3,4-tetrahydroquinolin-2-yl)methyl)acrylamide] |  | < 1 µM |  | 
C=CC(=O)NC1Cc2ccccc2N(Cc2ccc(Br)cc2)C1 (stereo not shown) [compound 191, N-(1-(4-bromobenzyl)-1,2,3,4-tetrahydroquinolin-3-yl)acrylamide] |  | < 1 µM |  | 

Now from value to molecule, other results behind:

IC50 [2] | IC50 ([2]; Homo sapiens, HEK-293T, 24 h) | SMILES | EC50 [1] | EC50 [3]
 | < 1 µM | C=CC(=O)NCC1Cc2c(N)cccc2N(c2ccc(C(F)(F)F)cc2)C1 (stereo not shown) [Cpd. No. 153, N-((5-amino-1-(4-(trifluoromethyl)phenyl)-1,2,3,4-tetrahydroquinolin-3-yl)methyl)acrylamide] | < 1 µM | < 1 µM
 | < 1 µM | C=CC(=O)NC(C)C1Cc2ccccc2N(c2ccc(C(F)(F)F)cc2)C1 (stereo not shown) [Cpd. No. 192, N-(1-(1-(4-(trifluoromethyl)phenyl)-1,2,3,4-tetrahydroquinolin-3-yl)ethyl)acrylamide] | < 1 µM | < 1 µM
 | < 1 µM | C=CC(=O)NC1Cc2ccccc2N(c2ccc(OC(F)(F)F)cc2)C1 (stereo not shown) [compound 021, N-(1-(4-(trifluoromethoxy)phenyl)-1,2,3,4-tetrahydroquinolin-3-yl)acrylamide] | < 1 µM | 
 | < 1 µM | C=CC(=O)NC1Cc2ccccc2N(c2ccc(SC(F)(F)F)cc2)C1 (stereo not shown) [compound 030, N-(1-(4-((trifluoromethyl)thio)phenyl)-1,2,3,4-tetrahydroquinolin-3-yl)acrylamide] | < 1 µM | 
 | < 1 µM | C=CC(=O)NC1Cc2c(C)cccc2N(c2ccc(C(F)(F)F)cc2)C1 (stereo not shown) [compound 064, N-(5-methyl-1-(4-(trifluoromethyl)phenyl)-1,2,3,4-tetrahydroquinolin-3-yl)acrylamide] | < 1 µM | 
 | < 1 µM | C=CC(=O)NCC1Cc2ccccc2N(c2ccc(C(F)(F)F)cc2F)C1 (stereo not shown) [compound 113, N-((1-(2-fluoro-4-(trifluoromethyl)phenyl)-1,2,3,4-tetrahydroquinolin-3-yl)methyl)acrylamide] | < 1 µM | 
 | < 1 µM | C=CC(=O)NCC1Cc2c(C)cccc2N(c2ccc(C(F)(F)F)cc2)C1 (stereo not shown) [compound 128, N-((5-methyl-1-(4-(trifluoromethyl)phenyl)-1,2,3,4-tetrahydroquinolin-3-yl)methyl)acrylamide] | < 1 µM | 
 | < 1 µM | C=CC(=O)N(C)CC1Cc2ccccc2N(c2ccc(C(F)(F)F)cc2)C1 (stereo not shown) [compound 134, N-methyl-N-((1-(4-(trifluoromethyl)phenyl)-1,2,3,4-tetrahydroquinolin-3-yl)methyl)acrylamide] | < 1 µM | 
 | < 1 µM | C=CC(=O)NC1Cc2ccccc2N(Cc2ccc(C(F)(F)F)cc2)C1 (stereo not shown) [compound 181, N-(1-(4-(trifluoromethyl)benzyl)-1,2,3,4-tetrahydroquinolin-3-yl)acrylamide] | < 1 µM | 
 | > 20 µM | O=S(=O)(O)CCNCC1Cc2ccccc2N(c2ccc(C(F)(F)F)cc2)C1 (stereo not shown) [compound 183, 2-(((1-(4-(trifluoromethyl)phenyl)-1,2,3,4-tetrahydroquinolin-3-yl)methyl)amino)ethane-1-sulfonic acid] |  | 
 | < 1 µM | C=CC(=O)NCC1Cc2ccccc2N(Cc2ccc(C(F)(F)F)cc2)C1 (stereo not shown) [compound 184, N-((1-(4-(trifluoromethyl)benzyl)-1,2,3,4-tetrahydroquinolin-3-yl)methyl)acrylamide] | < 1 µM | 
